Here are results for 3 compounds from PMC8510478, “Characterization and Identification of Bioactive Polyphenols in the Trapa bispinosa Roxb. Pericarp Extract” (Molecules, 2021).

Structures are written as SMILES. Like-named read-outs stand apart in the source and are kept apart here. Bounds are passed on as bounds.

As a reminder, the IC50 is the concentration at which inhibition is half-maximal.

A short description of data set [1]: AGE-derived crosslink-cleaving effect (PPD cleavage to benzoic acid, HPLC). As to conditions: for Crosslink-Cleaving Activities Relative Ratio: tested samples 100 μg/mL, relative to PTB = 100, means ± SE (n = 3). As for the experimental part: The AGE crosslink-cleaving activity of the same samples was evaluated according to the previously described method by Kato et al. with a slight modification. Briefly, the 1 mg/mL of tested samples prepared with H2O were mixed with 1.13 mM PPD solution in MeOH:50 mM phosphate buffer (pH 7.4) (1:1) and incubated at 37 °C for 4 h. After 4 h, the reaction was stopped with 200 μL of 2 M HCl, then the stopped reaction mixtures were centrifuged at 8200× g for 5 min. The amount of benzoic acid in the supernatant was measured by reversed-phase HPLC. The following conditions were applied: column, InertSustain C18 column (150 mm × 4.6 i.d mm., 5 μm); mobile phase, 50 mM phosphate buffer (pH 2.2):CH3CN (80:20) (solvent A) and 50 mM phosphate buffer (pH 2.2):CH3CN (50:50) (solvent B), the gradient program, 0–20 min (solvent B: 0–25%), 20–25 min (solvent B: 25–100%), 25–36 min (solvent B: 100–25%); column temperature, 40 °C; detection, UV at 230 nm; flow rate, 1.0 mL/min. These cleaving effects were calculated as equivalents to benzoic acid.

Data set [2] has as its system AGE formation in human serum albumin (HSA)/glucose or fructose. The data set can be described thus: Inhibitory effect on AGE formation (HSA with glucose or fructose, fluorescence). In kind it is biochemical. To be noted: 60 °C, 40 h, means ± SE (n = 3). As for the experimental part:
The antiglycation effects of compounds isolated from TBE and several other related compounds were evaluated based on their AGE inhibitory activities as described previously, with slight modifications. Briefly, the sample solution was added to a reaction mixture containing 83.3 mM phosphate buffer (pH 7.2), 2.0 M glucose, 2.0 M fructose, 8.0 mg/mL human serum albumin (HSA), and distilled water (6:1:1:1:1, v/v). As a control, the vehicle was supplemented instead of the sample solution. For each blank, glucose or fructose was replaced with distilled water, and the total volume was set to 1000 μL. After incubation of the sample mixture at 60 °C for 40 h, the solutions were diluted 8-fold with distilled water, dispensed into a black microplate in 200 µL portions, and their fluorescence intensities were measured at excitation and emission wavelengths of 370 and 465 nm, respectively, using a Power Scan HT (DS Pharma Biomedical Co. Ltd., Osaka, Japan). The inhibitory rate was calculated as; Inhibitory rate (%) = 100 − [(S − SB)/(C − CB)] × 100(2) where S is the relative intensity of the sample solution, C is the relative intensity of the control solution, and SB and CB are the intensities of the glucose or fructose-omitted blank solutions. The experimental data are represented as IC50 (μM) values.

In data set [3] the target is α-glucosidase. Details: method as in earlier work. As to conditions: table lines marked with reference 8; means ± SE (n = 3); read-out: Inhibitory Effects on α-Glucosidase Activity IC50; cited from earlier work.
Data set [4] has as its system α-glucosidase. The data set can be described thus: α-Glucosidase inhibitory activity (rat intestinal acetone powder, maltose substrate). The data set is classed as biochemical. As for the experimental part: The α-glucosidase inhibitory activity was tested according to the previously described method by Kirino et al. with a slight modification. Rat intestinal acetone powder was mixed with 0.1 M phosphate buffer (pH 7) and centrifuged at 18,500× g and 4 °C for 20 min. The resulting supernatant was collected and used as a glucosidase solution for enzymatic assay. Each sample solution (160 μL) was mixed with 250 mM maltose solution (20 μL) in 0.2 M phosphate buffer (pH 7) and then incubated at 37 °C for 3 min. After incubation, the enzymatic reaction was started by adding glucosidase solution from the rat intestine (20 μL) and the resulting reaction mixtures were further incubated at 37 °C for 15 min. After 15 min, the reaction mixtures were immediately heated at 100 °C for 5 min to stop the reaction followed by cooling on ice for 5 min. The amount of glucose in the reaction mixtures was determined using the F-Kit glucose (Roche diagnostics, Co., Tokyo, Japan) by measuring the absorbance at 340 nm. A control was carried out with 0.1 M phosphate buffer (pH 7) instead of sample solution. For the blank, the glucosidase solution was replaced with distilled water. The glucosidase inhibitory rates of tested samples were calculated as; Inhibitory rate (%) = 100 − [(Asample − Ablank)/(Acontrol − Ablank)] × 100(1) where Asample, Acontrol, and Ablank is the absorbance of the tested sample, control, and blank, respectively. The experimental data are represented as IC50 (μM) values.

Where [5] appears, read: HSA/fructose, read-out: Inhibitory Effects on AGE Formation IC50, Fructose.
[6] abbreviates: HSA/glucose, read-out: Inhibitory Effects on AGE Formation IC50, Glucose.

Consider `O=C(OC[C@H]1O[C@@H](OC(=O)c2cc(O)c(O)c(O)c2)[C@H](OC(=O)c2cc(O)c(O)c(O)c2)[C@@H](OC(=O)c2cc(O)c(O)c(O)c2)[C@@H]1O)c1cc(O)c(O)c(O)c1` [Compound 5, 1,2,3,6-tetra-O-galloyl-β-D-glucose], for which, in data set [1], the “Crosslink-Cleaving Activities Relative Ratio” value was found to be 209.0 ± 33.7. Further, the IC50 in data set [2] (setting [5]) is 300 nM; in data set [2] (setting [6]) it was 300 nM; in data set [3] it was > 100000 nM.
For the compound `O=C(OC1O[C@@H]2COC(=O)c3cc(O)c(O)c(O)c3-c3c(cc(O)c(O)c3O)C(=O)O[C@H]2[C@H](OC(=O)c2cc(O)c(O)c(O)c2)[C@H]1OC(=O)c1cc(O)c(O)c(O)c1)c1cc(O)c(O)c(O)c1` (some centres unmarked) [Compound 7, tellimagrandin II], the “Crosslink-Cleaving Activities Relative Ratio” value in data set [1] stood at 230.8 ± 12.2. Besides, the values for the IC50 in data set [2] (setting [5]), in data set [2] (setting [6]) and in data set [3] were 300 nM, 200 nM and > 100000 nM, respectively.
For the compound `O=C(O)c1cc(O)c(O)c(O)c1` [Gallic acid], in data set [4], the “α-Glucosidase inhibitory activity (in words)” value is recorded as “little effect”. The “AGE cross-link cleaving activity (in words)” value in data set [1] (compared with positive control PTB) is “remarkable activities”. In addition, the “Crosslink-Cleaving Activities Relative Ratio” value in data set [1] turned out to be 720.1 ± 54.1. Further, the IC50 in data set [2] (setting [5]) was 27000 ± 2600 nM; in data set [2] (setting [6]) it was 14700 ± 2000 nM; in data set [3], > 100000 nM.
